This is an account of results in patent US9598387B2 (Southern Research Institute, priority 2012, dated 2017).

As usually defined, the Ki is a measure of affinity in units of concentration, obtained from inhibition or displacement. High values mean lower affinity, low ones higher affinity.

Experiment [1] has as its target human D3 dopamine receptor (Homo sapiens (Human), UniProt P35462). In words: Radioligand binding (125I-IABN competition), D3. The settings on record: for Ki: 125I-IABN competition, HEK cell membranes expressing human D3; for D2/D3 (D3 selectivity ratio, D2 Ki/D3 Ki): calculated D2 Ki/D3 Ki. As to the method:
(§1) The affinities of the target compounds were determined using radioligand binding experiments. […] Competition curves were modeled for a single site. Data from competition dose-response curves were analyzed using Tablecurve program (Jandel). IC50 values were converted to equilibrium dissociation constants (Ki values) using the Cheng and Prusoff correction.

The target in experiment [2] is human D2-long dopamine receptor (Homo sapiens (Human), UniProt P14416). In words: Radioligand binding (125I-IABN competition), D2. The following applies: HEK cell membranes expressing human D2-long. As to the method: as §1
human D2-long dopamine receptor, sequence (P14416 whole entry): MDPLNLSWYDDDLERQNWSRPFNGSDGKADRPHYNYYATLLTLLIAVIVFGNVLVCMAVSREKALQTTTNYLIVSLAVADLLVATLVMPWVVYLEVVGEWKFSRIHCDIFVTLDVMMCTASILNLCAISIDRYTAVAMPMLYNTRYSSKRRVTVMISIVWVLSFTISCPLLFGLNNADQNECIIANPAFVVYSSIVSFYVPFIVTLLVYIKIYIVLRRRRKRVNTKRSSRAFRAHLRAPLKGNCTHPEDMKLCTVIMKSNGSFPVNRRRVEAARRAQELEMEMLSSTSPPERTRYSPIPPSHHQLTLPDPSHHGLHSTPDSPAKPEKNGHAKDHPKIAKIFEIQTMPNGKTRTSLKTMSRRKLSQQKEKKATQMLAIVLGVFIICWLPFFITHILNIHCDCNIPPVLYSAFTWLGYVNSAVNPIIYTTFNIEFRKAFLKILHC

human D3 dopamine receptor, sequence (P35462 whole entry): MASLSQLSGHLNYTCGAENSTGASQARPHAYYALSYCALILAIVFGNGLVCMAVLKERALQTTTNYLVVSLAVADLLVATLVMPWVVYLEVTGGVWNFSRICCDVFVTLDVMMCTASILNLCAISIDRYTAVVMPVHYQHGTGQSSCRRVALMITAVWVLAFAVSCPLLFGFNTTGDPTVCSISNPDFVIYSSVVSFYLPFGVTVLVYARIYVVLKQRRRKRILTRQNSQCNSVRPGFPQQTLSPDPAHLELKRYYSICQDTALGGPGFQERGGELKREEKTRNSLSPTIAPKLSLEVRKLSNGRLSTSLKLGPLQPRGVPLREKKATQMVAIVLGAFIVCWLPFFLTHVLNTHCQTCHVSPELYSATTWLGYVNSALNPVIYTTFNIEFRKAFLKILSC

As for `COc1ccc2[nH]c3c(c2c1)CN(C(=O)NCCCCN1CCN(c2cc(C(F)(F)F)nc(C(C)(C)C)n2)CC1)CC3` [Compound 92, N-(4-(4-(2-(tert-Butyl)-6-(trifluoromethyl)pyrimidin-4-yl)piperazin-1-yl)butyl)-8-methoxy-3,4-dihydro-1H-pyrido[4,3-b]indole-2(5H)-carboxamide], the results for the inhibition constant (Ki) in experiment [1] and in experiment [2] were 166 ± 4.1 nM and 1350 ± 241 nM, respectively. Further, the “D2/D3 (D3 selectivity ratio, D2 Ki/D3 Ki)” value in experiment [1] was 8.

In the case of `CC(C)(C)c1nc(N2CCN(CCCCNC(=O)N3CCc4[nH]c5ccc(C(F)(F)F)cc5c4C3)CC2)cc(C(F)(F)F)n1` [Compound 93, N-(4-(4-(2-(tert-Butyl)-6-(trifluoromethyl)pyrimidin-4-yl)piperazin-1-yl)butyl)-8-(trifluoromethyl)-3,4-dihydro-1H-pyrido[4,3-b]indole-2(5H)-carboxamide], in experiment [1], the Ki was found to be 84.8 ± 21.3 nM and the “D2/D3 (D3 selectivity ratio, D2 Ki/D3 Ki)” value was 7. Moreover, in experiment [2], affinity was put at a Ki of 560 ± 53 nM.

As to `Cc1ccc2[nH]c3c(c2c1)CN(C(=O)NCCCCN1CCN(c2cc(C(C)(C)C)nc(C)n2)CC1)CC3` [Compound 94, N-(4-(4-(6-(tert-Butyl)-2-methylpyrimidin-4-yl)piperazin-1-yl)butyl)-8-methyl-3,4-dihydro-1H-pyrido[4,3-b]indole-2(5H)-carboxamide], the figures for the Ki in experiment [1] and in experiment [2] were 219 ± 23.8 nM and 5480 ± 1150 nM, respectively. In experiment [1], the “D2/D3 (D3 selectivity ratio, D2 Ki/D3 Ki)” value is 25.

Consider `Cc1nc(N2CCN(CCCCNC(=O)N3CCc4[nH]c5ccc(Cl)cc5c4C3)CC2)cc(C(C)(C)C)n1` [Compound 95, N-(4-(4-(6-(tert-Butyl)-2-methylpyrimidin-4-yl)piperazin-1-yl)butyl)-8-chloro-3,4-dihydro-1H-pyrido[4,3-b]indole-2(5H)-carboxamide], for which, in experiment [1], the Ki was found to be 215 ± 45.5 nM and the “D2/D3 (D3 selectivity ratio, D2 Ki/D3 Ki)” value is on record as 26. This molecule also registered a Ki in experiment [2] of 5560 ± 1340 nM.

As to `COc1ccc2[nH]c3c(c2c1)CN(C(=O)NCCCCN1CCN(c2cc(C(C)(C)C)nc(C)n2)CC1)CC3` [Compound 96, N-(4-(4-(6-(tert-Butyl)-2-methylpyrimidin-4-yl)piperazin-1-yl)butyl)-8-methoxy-3,4-dihydro-1H-pyrido[4,3-b]indole-2(5H)-carboxamide], in experiment [1], the inhibition constant Ki stood at 74.9 ± 15 nM and the “D2/D3 (D3 selectivity ratio, D2 Ki/D3 Ki)” value is listed as more than 66. Moreover, in experiment [2], the Ki is more than 5000 nM.

Regarding `CC(C)(C)c1cc(N2CCN(CCCCNC(=O)N3CCc4[nH]c5ccccc5c4C3)CC2)cc(C(C)(C)C)c1` [Compound 97, N-(4-(4-(3,5-Di-tert-butylphenyl)piperazin-1-yl)butyl)-3,4-dihydro-1H-pyrido[4,3-b]indole-2(5H)-carboxamide], in experiment [1], the affinity corresponds to a Ki of 245 ± 46.4 nM and the “D2/D3 (D3 selectivity ratio, D2 Ki/D3 Ki)” value is given as 10. The Ki in experiment [2] worked out at 2440 ± 175 nM.

Turning to `Cc1nc(N2CCN(CCCCNC(=O)N3CCc4[nH]c5ccc(C(F)(F)F)cc5c4C3)CC2)cc(C(C)(C)C)n1` [Compound 98, N-(4-(4-(6-(tert-Butyl)-2-methylpyrimidin-4-yl)piperazin-1-yl)butyl)-8-(trifluoromethyl)-3,4-dihydro-1H-pyrido[4,3-b]indole-2(5H)-carboxamide], the values for the Ki in experiment [1] and in experiment [2] were 1020 ± 201 nM and 6400 ± 1100 nM, respectively. For the same molecule, the “D2/D3 (D3 selectivity ratio, D2 Ki/D3 Ki)” value in experiment [1] is listed as 6.

On to `O=C(NCCCCN1CCN(c2cc(C(F)(F)F)nc3ccccc23)CC1)N1CCN(c2ccccc2)CC1` [Compound 99, 4-Phenyl-N-(4-(4-(2-(trifluoromethyl)quinolin-4-yl)piperazin-1-yl)butyl)piperazine-1-carboxamide], for which, in experiment [1], the Ki turned out to be 299 ± 37.8 nM and the “D2/D3 (D3 selectivity ratio, D2 Ki/D3 Ki)” value is given as 24. In addition, the Ki in experiment [2] was found to be 7250 ± 754 nM.

`O=C(NCCCCN1CCN(c2cc(C(F)(F)F)nc3ccccc23)CC1)N1CCC(c2ccccc2)CC1` [Compound 100, 4-Phenyl-N-(4-(4-(2-(trifluoromethyl)quinolin-4-yl)piperazin-1-yl)butyl)piperidine-1-carboxamide]: in experiment [1], the Ki is 5320 ± 2220 nM and the “D2/D3 (D3 selectivity ratio, D2 Ki/D3 Ki)” value is more than 18. This molecule also displayed a Ki in experiment [2] of more than 100000 nM.

Regarding `CC(C)(C)c1nc(N2CCN(CCCCNC(=O)N3CCN(c4ccccc4)C(=O)C3)CC2)cc(C(F)(F)F)n1` [Compound 102, N-(4-(4-(2-(tert-Butyl)-6-(trifluoromethyl)pyrimidin-4-yl)piperazin-1-yl)butyl)-3-oxo-4-phenylpiperazine-1-carboxamide], in experiment [1], the affinity corresponds to a Ki of 19.2 nM and the “D2/D3 (D3 selectivity ratio, D2 Ki/D3 Ki)” value is recorded as 50. Moreover, in experiment [2], the Ki came to 962 nM.

`O=C(NCCCCN1CCN(c2ccnc3cc(Cl)ccc23)CC1)C1CCC(c2ccccc2)CC1` (stereo not shown) [Compound 105, N-(4-(4-(7-Chloroquinolin-4-yl)piperazin-1-yl)butyl)-4-phenylcyclohexanecarboxamide]: the results for the inhibitory constant (Ki) in experiment [1] and in experiment [2] were 34.5 ± 7.6 nM and 1020 ± 68.2 nM, respectively. In experiment [1], the “D2/D3 (D3 selectivity ratio, D2 Ki/D3 Ki)” value is on record as 29.

Regarding `O=C(NCCCCN1CCN(c2ccc3ccccc3n2)CC1)C1CCC(c2ccccc2)CC1` (stereo not shown) [Compound 106, 4-Phenyl-N-(4-(4-(quinolin-2-yl)piperazin-1-yl)butyl)cyclohexanecarboxamide], in experiment [1], the Ki was 62 ± 12.7 nM and the “D2/D3 (D3 selectivity ratio, D2 Ki/D3 Ki)” value is recorded as 50. Further, the Ki in experiment [2] came to 3090 ± 768 nM.

`Cc1cc(N2CCN(CCCCNC(=O)C3CCN(c4ccc(C(F)(F)F)cn4)CC3)CC2)nc(C(C)(C)C)n1` [Compound 107, N-(4-(4-(2-(tert-Butyl)-6-methylpyrimidin-4-yl)piperazin-1-yl)butyl)-1-(5-(trifluoromethyl)pyridin-2-yl)piperidine-4-carboxamide]: in experiment [1], the affinity, expressed as Ki, was 30.6 ± 7.4 nM and the “D2/D3 (D3 selectivity ratio, D2 Ki/D3 Ki)” value is listed as 32. In experiment [2], this molecule gave a Ki of 970 ± 137 nM.

As to `CC(C)(C)c1nc(N2CCN(CCCCNC(=O)C3CCN(Cc4ccccc4)CC3)CC2)cc(C(F)(F)F)n1` [Compound 109, 1-Benzyl-N-(4-(4-(2-(tert-butyl)-6-(trifluoromethyl)pyrimidin-4-yl)piperazin-1-yl)butyl)piperidine-4-carboxamide], the Ki stood at 35.6 ± 1.4 nM in experiment [1] and 337 nM in experiment [2].

In the case of `CC(C)(C)c1nc(N2CCN(CCCCNC(=O)C3CCN(c4ccc(C(F)(F)F)cn4)CC3)CC2)cc(C(F)(F)F)n1` [Compound 110, N-(4-(4-(2-(tert-Butyl)-6-(trifluoromethyl)pyrimidin-4-yl)piperazin-1-yl)butyl)-1-(5-(trifluoromethyl)pyridin-2-yl)piperidine-4-carboxamide], in experiment [1], the affinity, expressed as Ki, was 167 ± 8.5 nM and the “D2/D3 (D3 selectivity ratio, D2 Ki/D3 Ki)” value is 11. In experiment [2], the affinity corresponds to a Ki of 1800 ± 257 nM.

In the case of `CC(C)(C)c1nc(N2CCN(CCCCNC(=O)c3cn4c(CO)cccc4n3)CC2)cc(C(F)(F)F)n1` [Compound 119, N-(4-(4-(2-(tert-Butyl)-6-(trifluoromethyl)pyrimidin-4-yl)piperazin-1-yl)butyl)-5-(hydroxymethyl)imidazo[1,2-a]pyridine-2-carboxamide], the Ki stood at 45.4 ± 11.3 nM in experiment [1] and 934 ± 222 nM in experiment [2].

On to `CC(C)(C)c1cc(N2CCN(CCCCNC(=O)c3cn4ccccc4n3)CC2)nc(C(C)(C)C)n1` [Compound 122, N-(4-(4-(2,6-Di-tert-butylpyrimidin-4-yl)piperazin-1-yl)butyl)imidazo[1,2-a]pyridine-2-carboxamide], for which the results for the inhibition constant (Ki) in experiment [1] and in experiment [2] were 18.8 ± 3.5 nM and 361 nM, respectively. Moreover, in experiment [1], the “D2/D3 (D3 selectivity ratio, D2 Ki/D3 Ki)” value is recorded as 19.
